Source: ChEMBL document CHEMBL4507272 (2021)

Legend:
[1] = target: Activin receptor type-1B (Homo sapiens) (UniProt P36896); conditions: Compound concentration 1000.0 nM
[2] = target: Activin receptor type-1-like (Homo sapiens) (UniProt P37023); conditions: Compound concentration 1000.0 nM
[3] = target: Cytoplasmic tyrosine-protein kinase BMX (Homo sapiens) (UniProt P51813); conditions: Compound concentration 1000.0 nM
[4] = target: Mitotic checkpoint serine/threonine-protein kinase BUB1 (Homo sapiens) (UniProt O43683); conditions: Compound concentration 1000.0 nM
[5] = target: Calcium/calmodulin-dependent protein kinase type II subunit gamma (Homo sapiens) (UniProt Q13555); conditions: Compound concentration 1000.0 nM
[6] = target: Cyclin-dependent kinase 11B (Homo sapiens) (UniProt P21127); conditions: Compound concentration 1000.0 nM
[7] = target: Cyclin-dependent kinase 8 (Homo sapiens) (UniProt P49336); conditions: Compound concentration 1000.0 nM
[8] = target: Serine/threonine-protein kinase Chk2 (Homo sapiens) (UniProt O96017); conditions: Compound concentration 1000.0 nM
[9] = target: Citron Rho-interacting kinase (Homo sapiens) (UniProt O14578); conditions: Compound concentration 1000.0 nM
[10] = target: Casein kinase I isoform delta (Homo sapiens) (UniProt P48730); conditions: Compound concentration 1000.0 nM
[11] = target: Death-associated protein kinase 1 (Homo sapiens) (UniProt P53355); conditions: Compound concentration 1000.0 nM
[12] = target: Dual specificity tyrosine-phosphorylation-regulated kinase 1A (Homo sapiens) (UniProt Q13627); conditions: Compound concentration 1000.0 nM
[13] = test system: Epidermal growth factor receptor (Homo sapiens), P00533 [G719S]; conditions: Compound concentration 1000.0 nM
[14] = target: Ephrin type-A receptor 4 (Homo sapiens) (UniProt P54764); conditions: Compound concentration 1000.0 nM
[15] = target: Ephrin type-B receptor 3 (Homo sapiens) (UniProt P54753); conditions: Compound concentration 1000.0 nM
[16] = target: Mitogen-activated protein kinase 4 (Homo sapiens) (UniProt P31152); conditions: Compound concentration 1000.0 nM
[17] = target: Fibroblast growth factor receptor 1 (Homo sapiens) (UniProt P11362); conditions: Compound concentration 1000.0 nM
[18] = test system: Receptor-type tyrosine-protein kinase FLT3 (Homo sapiens), P36888 [D835Y]; conditions: Compound concentration 1000.0 nM
[19] = target: G protein-coupled receptor kinase 4 (Homo sapiens) (UniProt P32298); conditions: Compound concentration 1000.0 nM
[20] = target: Tyrosine-protein kinase HCK (Homo sapiens) (UniProt P08631); conditions: Compound concentration 1000.0 nM
[21] = target: Homeodomain-interacting protein kinase 4 (Homo sapiens) (UniProt Q8NE63); conditions: Compound concentration 1000.0 nM
[22] = target: Mast/stem cell growth factor receptor Kit (Homo sapiens) (UniProt P10721); conditions: Compound concentration 1000.0 nM
[23] = test system: Mast/stem cell growth factor receptor Kit (Homo sapiens), P10721 [V559D,V654A]; conditions: Compound concentration 1000.0 nM
[24] = target: MAP kinase-activated protein kinase 2 (Homo sapiens) (UniProt P49137); conditions: Compound concentration 1000.0 nM
[25] = target: MAP/microtubule affinity-regulating kinase 3 (Homo sapiens) (UniProt P27448); conditions: Compound concentration 1000.0 nM
[26] = target: Dual specificity mitogen-activated protein kinase kinase 2 (Homo sapiens) (UniProt P36507); conditions: Compound concentration 1000.0 nM
[27] = test system: Hepatocyte growth factor receptor (Homo sapiens), P08581 [Y1235D]; conditions: Compound concentration 1000.0 nM
[28] = target: Mitogen-activated protein kinase kinase kinase 10 (Homo sapiens) (UniProt Q02779); conditions: Compound concentration 1000.0 nM
[29] = target: Serine/threonine-protein kinase MRCK alpha (Homo sapiens) (UniProt Q5VT25); conditions: Compound concentration 1000.0 nM
[30] = target: Serine/threonine-protein kinase 38 (Homo sapiens) (UniProt Q15208); conditions: Compound concentration 1000.0 nM
[31] = target: Serine/threonine-protein kinase Nek3 (Homo sapiens) (UniProt P51956); conditions: Compound concentration 1000.0 nM
[32] = target: Phosphorylase b kinase regulatory subunit alpha, liver isoform (Homo sapiens) (UniProt P46019); conditions: Compound concentration 1000.0 nM
[33] = target: Phosphatidylinositol 4-kinase beta (Homo sapiens) (UniProt Q9UBF8); conditions: Compound concentration 1000.0 nM
[34] = target: Serine/threonine-protein kinase N2 (Homo sapiens) (UniProt Q16513); conditions: Compound concentration 1000.0 nM
[35] = target: Receptor-interacting serine/threonine-protein kinase 2 (Homo sapiens) (UniProt O43353); conditions: Compound concentration 1000.0 nM
[36] = target: Rho-associated protein kinase 2 (Homo sapiens) (UniProt O75116); conditions: Compound concentration 1000.0 nM
[37] = target: Proto-oncogene tyrosine-protein kinase ROS (Homo sapiens) (UniProt P08922); conditions: Compound concentration 1000.0 nM
[38] = target: Dual specificity testis-specific protein kinase 1 (Homo sapiens) (UniProt Q15569); conditions: Compound concentration 1000.0 nM
[39] = target: Serine/threonine-protein kinase tousled-like 2 (Homo sapiens) (UniProt Q86UE8); conditions: Compound concentration 1000.0 nM
[40] = target: Vascular endothelial growth factor receptor 2 (Homo sapiens) (UniProt P35968); conditions: Compound concentration 1000.0 nM
[41] = target: Wee1-like protein kinase (Homo sapiens) (UniProt P30291); conditions: Compound concentration 1000.0 nM
[42] = target: Mitogen-activated protein kinase kinase kinase 19 (Homo sapiens) (UniProt Q56UN5); conditions: Compound concentration 1000.0 nM
[43] = target: D(4) dopamine receptor (Homo sapiens) (UniProt P21917); conditions: Compound concentration 10.0 uM
[44] = target: D(1B) dopamine receptor (Homo sapiens) (UniProt P21918); conditions: Compound concentration 10.0 uM
[45] = target: Sodium-dependent dopamine transporter (Homo sapiens) (UniProt Q01959); conditions: Compound concentration 10.0 uM
Sodium-dependent dopamine transporter (Homo sapiens), sequence (Q01959 whole entry): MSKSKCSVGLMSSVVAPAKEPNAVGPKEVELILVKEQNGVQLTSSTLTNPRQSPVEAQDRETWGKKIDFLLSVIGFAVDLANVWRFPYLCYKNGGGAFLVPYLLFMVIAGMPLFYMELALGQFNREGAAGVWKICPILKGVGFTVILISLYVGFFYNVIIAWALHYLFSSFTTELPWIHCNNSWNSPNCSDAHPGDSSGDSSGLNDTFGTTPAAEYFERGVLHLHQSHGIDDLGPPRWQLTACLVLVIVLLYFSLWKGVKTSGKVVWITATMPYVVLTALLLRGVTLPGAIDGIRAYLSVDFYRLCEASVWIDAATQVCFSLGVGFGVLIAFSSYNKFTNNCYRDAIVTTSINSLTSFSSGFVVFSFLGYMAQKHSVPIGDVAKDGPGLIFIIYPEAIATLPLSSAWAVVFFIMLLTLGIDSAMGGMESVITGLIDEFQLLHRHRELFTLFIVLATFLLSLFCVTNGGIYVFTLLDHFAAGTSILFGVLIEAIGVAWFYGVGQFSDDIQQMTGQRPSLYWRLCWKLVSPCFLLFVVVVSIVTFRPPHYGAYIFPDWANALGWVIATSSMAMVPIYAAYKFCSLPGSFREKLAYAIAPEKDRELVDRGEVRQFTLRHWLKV

Cyclin-dependent kinase 8 (Homo sapiens), sequence (P49336 whole entry): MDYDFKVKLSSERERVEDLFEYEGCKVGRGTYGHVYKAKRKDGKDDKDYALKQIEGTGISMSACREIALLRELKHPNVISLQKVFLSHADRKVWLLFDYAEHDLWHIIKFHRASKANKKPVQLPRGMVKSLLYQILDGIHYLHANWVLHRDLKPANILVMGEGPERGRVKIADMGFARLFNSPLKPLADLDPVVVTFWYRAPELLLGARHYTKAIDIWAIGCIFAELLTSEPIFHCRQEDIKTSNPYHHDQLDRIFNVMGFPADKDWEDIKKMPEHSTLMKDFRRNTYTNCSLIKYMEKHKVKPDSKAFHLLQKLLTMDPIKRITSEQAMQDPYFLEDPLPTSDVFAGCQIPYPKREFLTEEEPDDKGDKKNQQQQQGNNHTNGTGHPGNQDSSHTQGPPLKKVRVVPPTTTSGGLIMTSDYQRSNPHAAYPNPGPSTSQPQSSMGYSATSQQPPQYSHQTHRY
G protein-coupled receptor kinase 4 (Homo sapiens), sequence (P32298 whole entry, looked up): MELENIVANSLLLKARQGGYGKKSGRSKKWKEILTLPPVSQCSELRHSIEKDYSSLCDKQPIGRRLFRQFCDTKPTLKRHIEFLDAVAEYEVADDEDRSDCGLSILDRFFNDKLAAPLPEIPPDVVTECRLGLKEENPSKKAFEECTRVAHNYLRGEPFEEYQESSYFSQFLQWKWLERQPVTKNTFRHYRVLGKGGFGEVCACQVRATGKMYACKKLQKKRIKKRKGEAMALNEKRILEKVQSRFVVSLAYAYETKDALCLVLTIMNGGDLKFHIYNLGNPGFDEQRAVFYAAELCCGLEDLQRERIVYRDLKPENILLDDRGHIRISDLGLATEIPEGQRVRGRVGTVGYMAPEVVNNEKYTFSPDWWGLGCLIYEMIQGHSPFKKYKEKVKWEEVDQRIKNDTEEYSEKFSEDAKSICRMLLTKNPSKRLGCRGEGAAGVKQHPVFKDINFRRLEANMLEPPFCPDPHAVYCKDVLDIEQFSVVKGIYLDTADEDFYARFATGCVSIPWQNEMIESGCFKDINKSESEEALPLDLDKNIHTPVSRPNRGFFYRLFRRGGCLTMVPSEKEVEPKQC
Proto-oncogene tyrosine-protein kinase ROS (Homo sapiens), sequence (P08922 whole entry): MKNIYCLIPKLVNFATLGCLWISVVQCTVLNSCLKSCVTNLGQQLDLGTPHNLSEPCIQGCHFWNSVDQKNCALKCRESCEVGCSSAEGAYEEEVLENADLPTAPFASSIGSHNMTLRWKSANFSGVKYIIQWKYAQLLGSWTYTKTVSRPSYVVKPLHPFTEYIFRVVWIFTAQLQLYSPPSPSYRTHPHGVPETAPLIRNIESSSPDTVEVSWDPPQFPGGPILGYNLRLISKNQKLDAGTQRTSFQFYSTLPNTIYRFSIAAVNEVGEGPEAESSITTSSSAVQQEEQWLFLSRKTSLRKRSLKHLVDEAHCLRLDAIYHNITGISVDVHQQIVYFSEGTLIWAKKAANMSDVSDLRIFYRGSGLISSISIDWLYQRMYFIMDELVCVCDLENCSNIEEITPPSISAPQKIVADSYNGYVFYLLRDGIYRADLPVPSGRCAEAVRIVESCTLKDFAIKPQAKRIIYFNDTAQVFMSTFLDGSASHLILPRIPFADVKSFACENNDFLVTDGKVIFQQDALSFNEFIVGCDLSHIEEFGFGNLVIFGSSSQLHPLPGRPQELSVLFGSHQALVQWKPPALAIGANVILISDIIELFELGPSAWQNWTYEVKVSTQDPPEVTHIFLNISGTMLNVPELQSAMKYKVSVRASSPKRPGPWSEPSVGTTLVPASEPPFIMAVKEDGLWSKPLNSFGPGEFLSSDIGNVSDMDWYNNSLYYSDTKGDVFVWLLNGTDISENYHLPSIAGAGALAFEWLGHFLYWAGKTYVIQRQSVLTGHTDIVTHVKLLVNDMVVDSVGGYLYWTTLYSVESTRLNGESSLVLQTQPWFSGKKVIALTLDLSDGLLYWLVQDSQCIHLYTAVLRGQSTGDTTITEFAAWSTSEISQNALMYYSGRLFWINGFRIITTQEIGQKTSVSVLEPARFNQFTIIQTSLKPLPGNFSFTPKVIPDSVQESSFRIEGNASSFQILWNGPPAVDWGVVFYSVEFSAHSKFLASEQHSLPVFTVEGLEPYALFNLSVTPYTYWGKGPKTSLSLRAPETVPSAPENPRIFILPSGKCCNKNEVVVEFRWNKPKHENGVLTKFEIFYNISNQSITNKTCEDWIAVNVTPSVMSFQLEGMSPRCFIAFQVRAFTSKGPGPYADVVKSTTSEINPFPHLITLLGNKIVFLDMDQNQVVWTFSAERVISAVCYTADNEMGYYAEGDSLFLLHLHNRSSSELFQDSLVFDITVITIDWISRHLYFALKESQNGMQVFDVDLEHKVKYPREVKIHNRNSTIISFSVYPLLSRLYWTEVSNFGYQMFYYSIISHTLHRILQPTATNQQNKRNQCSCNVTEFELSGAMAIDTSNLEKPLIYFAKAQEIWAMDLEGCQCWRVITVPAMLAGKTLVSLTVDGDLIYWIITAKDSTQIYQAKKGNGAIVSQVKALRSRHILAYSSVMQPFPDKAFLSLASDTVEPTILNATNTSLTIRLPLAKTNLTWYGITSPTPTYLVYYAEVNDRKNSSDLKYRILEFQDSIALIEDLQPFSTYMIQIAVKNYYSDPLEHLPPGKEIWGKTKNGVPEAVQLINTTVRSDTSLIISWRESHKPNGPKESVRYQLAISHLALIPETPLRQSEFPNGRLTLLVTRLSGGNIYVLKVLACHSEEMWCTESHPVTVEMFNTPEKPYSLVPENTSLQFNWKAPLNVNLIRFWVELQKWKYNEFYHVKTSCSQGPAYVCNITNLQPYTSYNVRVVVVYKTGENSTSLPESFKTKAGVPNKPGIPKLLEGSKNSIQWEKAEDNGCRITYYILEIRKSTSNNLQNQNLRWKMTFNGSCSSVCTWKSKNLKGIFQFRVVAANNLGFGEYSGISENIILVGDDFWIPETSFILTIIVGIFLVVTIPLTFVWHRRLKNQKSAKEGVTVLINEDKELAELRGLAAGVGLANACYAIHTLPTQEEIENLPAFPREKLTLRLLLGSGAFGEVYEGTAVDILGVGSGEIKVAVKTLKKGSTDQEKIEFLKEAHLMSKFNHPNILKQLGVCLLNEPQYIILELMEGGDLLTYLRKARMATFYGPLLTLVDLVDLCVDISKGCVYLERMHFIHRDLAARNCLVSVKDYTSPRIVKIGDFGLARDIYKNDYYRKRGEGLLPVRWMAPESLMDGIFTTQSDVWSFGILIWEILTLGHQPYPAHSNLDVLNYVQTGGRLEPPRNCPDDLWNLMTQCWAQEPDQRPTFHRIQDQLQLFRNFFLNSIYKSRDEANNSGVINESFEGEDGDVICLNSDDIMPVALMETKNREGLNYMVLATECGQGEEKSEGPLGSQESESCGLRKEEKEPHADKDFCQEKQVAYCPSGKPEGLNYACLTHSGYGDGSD
Serine/threonine-protein kinase 38 (Homo sapiens), sequence (Q15208 2-465 limits assumed): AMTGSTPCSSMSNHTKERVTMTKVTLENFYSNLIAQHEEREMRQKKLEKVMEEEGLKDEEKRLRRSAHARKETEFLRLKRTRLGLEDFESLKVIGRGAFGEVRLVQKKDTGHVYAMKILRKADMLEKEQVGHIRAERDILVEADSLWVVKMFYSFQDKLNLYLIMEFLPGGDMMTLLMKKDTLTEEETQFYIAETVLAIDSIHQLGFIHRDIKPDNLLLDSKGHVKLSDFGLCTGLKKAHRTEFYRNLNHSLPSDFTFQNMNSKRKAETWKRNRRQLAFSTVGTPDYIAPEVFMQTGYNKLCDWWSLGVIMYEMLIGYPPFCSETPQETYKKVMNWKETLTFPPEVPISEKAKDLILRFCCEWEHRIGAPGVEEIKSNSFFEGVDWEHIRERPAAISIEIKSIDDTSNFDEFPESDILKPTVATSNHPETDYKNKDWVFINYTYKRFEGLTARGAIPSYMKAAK
D(1B) dopamine receptor (Homo sapiens), sequence (P21918 whole entry): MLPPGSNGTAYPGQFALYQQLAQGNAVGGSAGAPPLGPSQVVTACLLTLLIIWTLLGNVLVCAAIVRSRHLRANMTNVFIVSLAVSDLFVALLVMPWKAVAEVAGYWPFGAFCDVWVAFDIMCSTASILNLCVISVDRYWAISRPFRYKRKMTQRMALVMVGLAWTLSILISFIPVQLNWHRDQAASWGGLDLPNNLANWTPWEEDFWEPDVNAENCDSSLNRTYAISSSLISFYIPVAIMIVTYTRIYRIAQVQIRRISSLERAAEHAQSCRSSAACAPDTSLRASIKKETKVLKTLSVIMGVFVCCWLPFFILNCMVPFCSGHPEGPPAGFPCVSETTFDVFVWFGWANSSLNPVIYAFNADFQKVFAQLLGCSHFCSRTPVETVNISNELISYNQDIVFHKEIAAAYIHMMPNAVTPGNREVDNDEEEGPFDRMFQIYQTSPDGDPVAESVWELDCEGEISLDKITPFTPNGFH

CC(=O)C1=C(C)N(c2cccc(C(F)(F)F)c2)C(=O)N[C@@H]1c1ccc(C#N)nc1 [BAY-678]
inactive: residual activity [1] 100% | residual activity [2] 71.7% | residual activity [3] 97.4% | residual activity [4] 100% | residual activity [5] 100% | residual activity [6] 100% | residual activity [7] 65.3% | residual activity [8] 85.6% | residual activity [9] 77.6% | residual activity [10] 100% | residual activity [11] 93.8% | residual activity [12] 100% | residual activity [13] 100% | residual activity [14] 100% | residual activity [15] 100% | residual activity [16] 100% | residual activity [17] 100% | residual activity [18] 93.9% | residual activity [19] 100% | residual activity [20] 87.7% | residual activity [21] 100% | residual activity [22] 96.9% | residual activity [23] 100% | residual activity [24] 82.6% | residual activity [25] 100% | residual activity [26] 84.2% | residual activity [27] 100% | residual activity [28] 92.1% | residual activity [29] 100% | residual activity [30] 94.1% | residual activity [31] 72% | residual activity [32] 80.8% | residual activity [33] 100% | residual activity [34] 96.3% | residual activity [35] 98.7% | residual activity [36] 86.1% | residual activity [37] 100% | residual activity [38] 100% | residual activity [39] 100% | residual activity [40] 84% | residual activity [41] 100% | residual activity [42] 93% | inhibition [43] 15.9% | inhibition [44] 0.739% | inhibition [45] -0.342%
